One block for each molecule: values may come before it. Active and inactive are the calls of the source. No cut-off for these calls is given here.
Key:
A2058 [1] = test: Antiproliferative activity against human A2058 cells harbouring BRAF V600E mutant assessed as cell death at 50 uM incubated for 48 hrs by Celltiter-glo assay; format: functional, cell-based
A2058 [2] = test: Antiproliferative activity against human A2058 cells harbouring BRAF V600E mutant assessed as cell death incubated for 48 hrs by Celltiter-glo assay; format: functional, cell-based; settings: for Activity: dose 10-60 µM; for EC50: A2058, 48 h
[3] = target: T1, Eukaryotic translation initiation factor 4E (Homo sapiens, UniProt P06730); test: Competitive inhibition of human 10 his-tagged eIF4E extracted from Escherichia coli BL21 (DE3) cells incubated for 40 mins by fluorescence polarization assay
[4] = target: T1, Eukaryotic translation initiation factor 4E; test: Induction of thermal stabilization of eIF4E in human HeLa cell lysates incubated for 1 hr at 42 to 52 degreeC by CETSA based Western blot analysis; format: subcellular
A2058 [5] = test: Downregulation of CCND3 expression in human A2058 cells incubated for 6 hrs by Western blot analysis; format: functional, cell-based
A2058 [6] = test: Downregulation of ODC1 expression in human A2058 cells incubated for 6 hrs by Western blot analysis; format: functional, cell-based
A-375 = test: Antiproliferative activity against human A-375 cells incubated for 48 hrs by Celltiter-glo assay; format: functional, cell-based; settings: A-375, 48 h
A2058 [7] = test: Downregulation of CCND1 expression in human A2058 cells incubated for 6 hrs by Western blot analysis; format: functional, cell-based
SK-MEL-2 = test: Antiproliferative activity against human SK-MEL-2 cells at 1.0 to 1.8 uM incubated for 48 hrs by Celltiter-glo assay; format: functional, cell-based; settings: dose 1-1.8 µM
A2058 [8] = test: Effect on c-Myc expression in human A2058 cells incubated for 6 hrs by Western blot analysis; format: functional, cell-based

T1 sequence (P06730 whole entry): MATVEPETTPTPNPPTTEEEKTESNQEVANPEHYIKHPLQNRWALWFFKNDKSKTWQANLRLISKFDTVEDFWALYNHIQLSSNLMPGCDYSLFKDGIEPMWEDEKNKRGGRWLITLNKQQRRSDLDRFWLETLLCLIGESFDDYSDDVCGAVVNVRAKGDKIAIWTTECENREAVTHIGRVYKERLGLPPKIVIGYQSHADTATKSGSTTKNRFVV

Structure (SMILES): CC(C)(C)C(=O)OCOP(=O)(OCOC(=O)C(C)(C)C)c1cccc(Cn2c[n+](Cc3cc4cc(Cl)ccc4o3)c3c(=O)[nH]c(N)nc32)c1
Activity (A2058 [1]): Active; Compound Found To Be Less Active

Structure (SMILES): CC(C)(C)C(=O)OCOP(=O)(CCc1ccc(Cn2c[n+](Cc3cc4cc(Cl)ccc4o3)c3c(=O)[nH]c(N)nc32)cc1)OCOC(=O)C(C)(C)C
Activity (A2058 [2]): inactive

IC50 [3]: 4.1 µM
Activity [4]: Active
Structure (SMILES): Nc1nc2c(c(=O)[nH]1)[n+](Cc1cc3cc(Cl)ccc3o1)cn2Cc1cccc(CCP(=O)(O)O)c1

Structure (SMILES): CC(C)(C)C(=O)OCOP(=O)(CCc1ccccc1Cn1c[n+](Cc2cc3cc(Cl)ccc3o2)c2c(=O)[nH]c(N)nc21)OCOC(=O)C(C)(C)C
EC50 (A2058 [2]): 51.3 µM
Activity (A2058 [2]): Dose-dependent-effect

IC50 [3]: 17.2 µM
Structure (SMILES): Nc1nc2c(c(=O)[nH]1)[n+](Cc1cc3cc(Cl)ccc3o1)cn2Cc1ccccc1CCP(=O)(O)O

Structure (SMILES): CC(C)(C)C(=O)OCOP(=O)(CCc1cccc(-n2c[n+](Cc3cc4cc(Cl)ccc4o3)c3c(=O)[nH]c(N)nc32)c1)OCOC(=O)C(C)(C)C
Activity (A2058 [1]): Active

Structure (SMILES): CC(C)(C)C(=O)OCOP(=O)(Cc1cccc(Cn2c[n+](Cc3cc4cc(Cl)ccc4o3)c3c(=O)[nH]c(N)nc32)c1)OCOC(=O)C(C)(C)C
Activity (A2058 [1]): Active; Compound Found To Be Less Active

EC50 (A-375): 54 µM
Structure (SMILES): CC(C)(C)C(=O)OCOP(=O)(CCc1cccc(Cn2c[n+](Cc3cc4cc(Cl)ccc4o3)c3c(=O)[nH]c(N)nc32)c1)OCOC(=O)C(C)(C)C
Activity (A2058 [1]): Active; Compound Showed Near Complete Cell Death
Activity (A2058 [5]): Active
EC50 (A2058 [2]): 40 µM
Activity (A2058 [2]): Dose-dependent-effect
Activity (A2058 [6]): Active
Activity (A2058 [7]): Active
Activity (SK-MEL-2): inactive
Activity (A2058 [8]): inactive
